The test system of one data set is Musca domestica. Kind of data set: Efficacy test against Musca domestica (treated cube sugar). It counts as in vivo. The settings on record: 100 ppm on cube sugar, after 24 hours, 25° C. On the procedure:
The compound of the present invention was diluted with acetone, followed by dropping to 1 g of cube sugar so that the concentration reaches to 100 ppm. The cube sugar was placed in a plastic cup and 10 adult female Musca domestica were released therein, followed by putting the lid on the cup. The cup was kept at 25° C., the mortality was investigated after 24 hours was passed from the releasing of Musca domestica and the insect mortality rate was calculated by the following equation. The test was repeated twice. Insect mortality rate (%)=(number of dead insects/number of sample insects)×100

The test system of the next data set is Culex pipiens. The data set is described as follows: Efficacy test against Culex pipiens (larvae in chemical solution). The settings on record: 2 ppm in water, after 1 day. The data set is classed as in vivo. How it is done: (§1) 5 parts of the compound of the present invention, 93.6 parts of dimethyl formamide and 1.4 parts of polyoxyethylene alkylaryl ether were mixed and dissolved to obtain emulsion (I) including 5% of active ingredient.
Emulsion (I) was diluted with water so that the concentration of the compound of the present invention reaches 2 ppm to prepare a chemical solution for test. 20 first-instar larvae of Culex pipiens were released into 100 ml of the chemical solution for test, then the number of dead insects was calculated after 1 day was passed, and the insect mortality rate was calculated by the following equation. The test was repeated twice. Insect mortality rate (%)=(number of dead insects/number of sample insects)×100

Another data set relates to Tetranychus kanzawai. Kind of data set: Efficacy test against Tetranychus kanzawai (spray on kidney bean seedlings). It counts as in vivo. The settings on record: 240 h, sprayed on kidney bean seedlings, adult mortality 10 days after spraying, 25° C., humidity 65%, read-out: mortality rate against Tetranychus kanzawai. On the procedure:
as §1
Kidney bean plants were raised in No. 3 pots and the primary leaves were inoculated with 10 adult female Tetranychus kanzawai. Emulation (I) was diluted with water so that the concentration of the compound of the present invention reaches 125 ppm, followed by spraying the diluted liquid on the kidney bean seedlings. The kidney bean seedlings were then placed in a temperature-controlled room with a temperature of 25° C. and humidity of 65%. Mortality of the adult Tetranychus kanzawai was investigated after 10 days were passed from the spraying, and the insect mortality rate of Tetranychus kanzawai was calculated. The test was repeated twice.

In data set [1] the test system is Aphis gossypii. Kind of data set: Efficacy test against Aphis gossypii (root-dipping test). It counts as in vivo. The settings on record: 8 ppm in hydroponic liquid, cucumber, nymphs, after 6 days.
Text: as §1
Cucumber plants raised in No. 3 pots were pulled out from the pots, then the soil attached to the roots was washed with tap water, followed by hydroponic-cultivating the cucumber plants by soaking the roots in tap water. The cucumber seedlings were inoculated with nymphs of Aphis gossypii. Emulsion (I) was diluted with water to obtain a diluted liquid with a concentration of 8 ppm of the compound of the present invention. The tap water was replaced with the diluted liquid, and then the hydrophonic-cultivation was continued in a temperature-controlled room with a temperature was 25° C. and humidity of 60%.
After 6 days were passed from the hydrophonic-cultivation in the diluted liquid, mortality of Aphis gossypii was investigated and the insect mortality rate was calculated. The test was repeated twice.

In the next data set the test system is Pseudaletia separate. The data set is described as follows: Efficacy test against Pseudaletia separate (maize leaf dip). The data set is classed as in vivo. The settings on record: foliar, 144 h, maize leaves soaked 30 seconds, second-instar larvae, after 6 days, 25° C., read-out: insect mortality rate against Pseudaletia separate. How it is done:
as §1
Emulsion (I) was diluted with water so that the concentration of the compound of the present invention reaches 125 ppm. Maize leaves were soaked in the diluted liquid for 30 seconds. Then the maize leaves were put on Petri dishes, followed by inoculating 5 second-instar larvae of Pseudaletia separate. The Petri dishes were placed in a temperature-controlled room with a temperature of 25° C. and humidity of 60%. Mortality was investigated after 6 days were passed, and the insect mortality rate was calculated. The test was repeated twice.

A further data set concerns Spodoptera litura. The data set is described as follows: Efficacy test against Spodoptera litura (cabbage leaf dip). The settings on record: foliar, 144 h, cabbage leaves soaked 30 seconds, second-instar larvae, after 6 days, 25° C., read-out: insect mortality rate against Spodoptera litura. It counts as in vivo. How it is done:
as §1
Emulation (I) was diluted with water so that the concentration of the compound of the present invention reaches 125 ppm. Cabbage leaves were soaked in the diluted liquid for 30 seconds. Then the cabbage leaves were put on Petri dishes, followed by inoculating 5 second-instar larvae of Spodoptera litura. The Petri dishes were placed in a temperature-controlled room with a temperature was 25° C. and humidity of 60%. Mortality was investigated after 6 days were passed, and the insect mortality rate was calculated. The test was repeated twice.

The next data set concerns Plutella xylostella. The data set is described as follows: Efficacy test against Plutella xylostella (cabbage leaf dip). The data set is classed as in vivo. The settings on record: foliar, 72 h, cabbage leaves soaked 30 seconds, second-instar larvae, after 3 days, 25° C., read-out: mortality rate against Plutella xylostella. How it is done:
as §1
Emulsion (I) was diluted with water so that the concentration of the compound of the present invention reaches 125 ppm. Cabbage leaves were soaked in the diluted liquid for 30 seconds. Then the cabbage leaves were put on Petri dishes, followed by inoculating 5 second-instar larvae of Plutella xylostella. The Petri dishes were placed in a temperature-controlled room with a temperature was 25° C. and humidity of 60%. Mortality was investigated after 3 days were passed, and the insect mortality rate was calculated. The test was repeated twice.

Data set [2] relates to Aphis gossypii. The data set is described as follows: Efficacy test against Aphis gossypii (spray on cucumber seedlings). It counts as in vivo. The settings on record: sprayed on cucumber seedlings inoculated with nymphs, 4 days after spraying, read-out: mortality rate against Aphis gossypii. How it is done:
as §1
Cucumber plants were raised in No. 3 pots and the first true leaves were inoculated with nymphs of Aphis gossypii. Emulation (I) was diluted with water so that the concentration of the compound of the present invention reaches 125 ppm, followed by spraying the diluted liquid on the cucumber seedlings. The cucumber seedlings were then placed in a temperature-controlled room with a temperature of 25° C. and humidity of 60%. Mortality was investigated after 4 days were passed from the spraying, and the insect mortality rate of Aphis gossypii was calculated. The test was repeated twice.

The structures appear in SMILES notation.

Turning to `CCS(=O)(=O)c1cc(C(F)(F)F)ccc1-c1ncc(-c2ccc(OC(F)(F)F)cc2)n1C` [Compound 1-35], the “insect mortality rate against the adult female Musca domestica” value with Musca domestica worked out at 100%. The “insect mortality rate against the first-instar larvae of Culex pipiens” value in the data set on Culex pipiens is listed as 100%.
The mortality is the percentage killed. With `Cn1c(-c2ccc(C(F)(F)F)cc2)cnc1-c1ccc(C(F)(F)F)cc1F` [Compound 1-4, 2-(2-fluoro-4-(trifluoromethyl)phenyl)-1-methyl-5-(4-(trifluoromethyl)phenyl)-1H-imidazole], the mortality at 125 ppm with Tetranychus kanzawai is ≥ 90%.
As for `CCS(=O)(=O)c1cnccc1-c1ncc(-c2ccc(C(F)(F)F)cc2)n1C` [Compound 3-1], in the data set on Aphis gossypii [1], the “insect mortality rate (Aphis gossypii, root-dipping test)” value is ≥ 80%.
Regarding `CCS(=O)(=O)c1cc(C(F)(F)F)ccc1-c1ncc(-c2ccc(C(F)(F)F)cc2)n1C` [Compound 1-3, 2-(2-(ethylsulfonyl)-4-(trifluoromethyl)phenyl)-1-methyl-5-(4-(trifluoromethyl)phenyl)-1H-imidazole], the mortality at 125 ppm in the data set on Pseudaletia separate, with Spodoptera litura, in the data set on Plutella xylostella and in the data set with Aphis gossypii [2] was ≥ 80% each time.
The term melting point denotes the temperature, or range, at which the solid turns liquid. `Cn1c(-c2ccc(C(F)(F)F)cc2)c[n+]([O-])c1-c1ccc(C(F)(F)F)cc1F` showed a melting point of 229 to 231 °C.
As to `CCSc1cc(C(F)(F)F)ccc1-c1ncc(-c2ccc(C(F)(F)F)cc2)n1C` [Compound 1-7, 2-(2-(ethylsulfanyl)-4-(trifluoromethyl)phenyl)-1-methyl-5-(4-(trifluoromethyl)phenyl)-1H-imidazole], the mortality at 125 ppm with Pseudaletia separate, in the data set on Spodoptera litura and in the data set with Plutella xylostella was ≥ 80% each time.

(Values after patent US10021880B2, “Diarylimidazole compound and harmful organism control agent” (Nippon Soda Co., Ltd., priority 2014, dated 2018).)
